Legend:
Assay type in all cases: physicochemical
[1] = Absolute density by helium pycnometry
Experimental: (§1) Trehalose 45H3830 (Sigma) and mannitol K91698380-703 (Merck) were either sieved, or freeze dried, compacted, ground and then sieved. A range of the resulting preparations were then analyzed for particle size and density measurements.
(§2) Portions of each sugar excipient were sieved to obtain preparations having reduced particle sizes. Sieving was carried out using stainless steel sieves for two hours at 3 mm amplitude using three sieve sizes (75 μm, 53 μm and 38 μm) without additional processing.
(§3) Alternatively, portions of each sugar excipient were processed using the methods of the invention as follows. 40 g of each of the sugars was dissolved in water, flash frozen, and then freeze dried over night. Samples of each freeze dried preparation were retained, and the remainder compacted in a 13 mm compression die (15,000 lbs/inch^2 for 45 seconds) into discs. The mannitol discs were ground using mortar and pestle, and then sieved as described above at 3 mm amplitude, using three sieve sizes. The trehalose discs were first ground in a vibratory ball mill (Retsch mill), then ground by mortar and pestle and sieved as above.
(§4) Samples from each of the above-described excipient preparations were then analyzed for absolute and envelope density. Absolute density was determined using helium pycnometry, and envelope density was determined using a GeoPyc™ Model 1360 Envelope Density Analyzer (Micromeritics Instrument Corp.).

[2] = Densification of excipients, comparison of compacted particles with like weights of non-densified starting materials; conditions: compacted at 10,000 lbs/in^2 for 30 seconds, ground, sieved > about 50 μm
Experimental: Finely ground powders of pharmaceutical grade mannitol and lactose were obtained and reprocessed using the method of the invention. Particularly, approximately 30 to 50 mg of mannitol or lactose were compacted under pressure using a Carver Laboratory Pellet Press (Model 3620, available from Carver, Inc., Wabash, Ind.). The pressure of compaction was 10,000 lbs/in^2 which was applied for approximately 30 seconds. The resulting compacted pellets were ground using mortar and pestle until visually broken up, and then sieved to select for particles having a size greater than about 50 μm using the methods described in Example 3.

[3] = Envelope density by GeoPyc Model 1360 Envelope Density Analyzer; conditions: for change of envelope density by compression, milling, sieving: relative to both the freeze-dried and the sieved preparations
Experimental: as §1, §2, §3, §4

[4] = pretreatment: Freeze Dried, Compressed, Milled, Sieved

| Density Absolute ([1]; pretreatment: Freeze Dried) [g/mL] | Density Absolute [1, 4] [g/mL] | Density Absolute ([1]; pretreatment: Sieved) [g/mL] | Density Envelope ([3]; pretreatment: Freeze Dried) [g/mL] | Density Envelope [3, 4] [g/mL] | Density Envelope ([3]; pretreatment: Sieved) [g/mL] | change of envelope density by compression, milling, sieving [3] | Compound | size of compacted particles versus like weights of non-densified starting materials [2] |
| --- | --- | --- | --- | --- | --- | --- | --- | --- |
| 1.5 | 1.5 | 1.5 | 0.3 | 0.8 | 0.5 | significant increase in envelope density | OC[C@@H](O)[C@@H](O)[C@H](O)[C@H](O)CO [Mannitol] | a significant size reduction was observed |
| 1.5 | 1.5 | 1.5 | 0.3 | 0.8 | 0.5 | significant increase in envelope density | OC[C@H]1O[C@H](O[C@H]2O[C@H](CO)[C@@H](O)[C@H](O)[C@H]2O)[C@H](O)[C@@H](O)[C@@H]1O [Trehalose] | – |
| – | – | – | – | – | – | – | OC[C@H]1O[C@@H](O[C@H]2[C@H](O)[C@@H](O)C(O)O[C@@H]2CO)[C@H](O)[C@@H](O)[C@H]1O (stereo partly shown) [lactose] | a significant size reduction was observed |
